Here are results for 15 compounds from paper PMC2114115 (The Journal of Cell Biology, 1986).

Data set [1] deals with GH4C1 cells. Description: Release and degradation of cell-bound 125I-EGF. Conditions: 37C; for subsequent rate of release of 125I-tyrosine from 125I-EGF: chloroquine 0.1 mM, leupeptin 0.1 mg/ml; for half-time for the release of 125I-tyrosine derived from receptor-bound 125I-EGF: Fig. 6, control cells or 0.1 mM chloroquine, 59 pM, 90 min binding. In kind it is cell-based, rat.

The test system of data set [2] is SRIF receptors of GH4C1 cells. Kind of data set: Specific binding of [125I-Tyr1]SRIF to GH4C1 cells. Details: species or system rat. Conditions: for cellular accumulation of total or acid-resistant [125I-Tyr1]SRIF: ammonium chloride 20 mM, leupeptin 0.1 mg/ml; for [125I-Tyr1]SRIF bound, Total: Table III, control, leupeptin 0.1 mg/ml or chloroquine 0.1 mM.
The target of data set [3] is EGF receptors of GH4C1 cells (Rattus norvegicus, UniProt G3V6K6). Description: Specific binding of 125I-EGF to GH4C1 cells. Conditions: for amount of cell-associated 125I-EGF: Fig. 5, prolonged 37C binding incubations, chloroquine 0.1 mM, leupeptin 0.1 mg/ml.
In data set [4] the test system is GH4C1 cells. Description: Release and degradation of cell-bound [125I-Tyr1]SRIF. In kind it is cell-based, rat. The conditions noted are these: for rate of dissociation or degradation of prebound [125I-Tyr1]SRIF / half-time of release of radioactivity after [125I-Tyr1]SRIF binding: 37C; for rate of dissociation or degradation of prebound [125I-Tyr1]SRIF: chloroquine 0.1 mM, leupeptin 0.1 mg/ml; for half-time of release of radioactivity after [125I-Tyr1]SRIF binding: Fig. 6, absence or presence of 0.1 mM chloroquine, or 0.1 mg/ml leupeptin, 35 pM, 60 min binding; for effect on receptor-mediated degradation of [125I-Tyr1]SRIF: Table V conditions, compound in dissociation medium, 60 min at 37C.

For data set [5], the system named is GH4C1 cells. Conditions: Koch and Schonbrunn, unpublished observations; cited from earlier work.
The next data set deals with GH4C1 cell membranes. Description: Binding, dissociation and degradation of [125I-Tyr1]SRIF with cell membranes. Details: species or system rat. Conditions: Table IV; dissociation incubation 4 h at 37C; without or with 100 nM SRIF.
Data set [6] deals with GH4C1 cells. Kind of data set: Acid/salt extraction: cellular distribution of receptor-bound 125I-EGF. In kind it is cell-based, rat. The conditions noted are these: pulse-chase at 37 degrees C after binding 5 h at 4C, 80 pM (Fig. 2).
Data set [7] has as its system GH4C1 cells. The conditions noted are these: 37C; cited from earlier work.
Setting [8] is: Table V Exp. 2, control or a2-macroglobulin 50 ug/ml.

Some results are limits rather than exact numbers.

Take `CCN(CC)CCCC(C)Nc1ccnc2cc(Cl)ccc12` (centres unmarked) [chloroquine]: in the data set with GH4C1 cells [1], the “subsequent rate of release of 125I-tyrosine from 125I-EGF” value is listed as “decreased” and the “half-time for the release of 125I-tyrosine derived from receptor-bound 125I-EGF” value is reported as 150 min. Besides, in data set [2] (37C, chloroquine 0.1 mM), the “cellular accumulation of total or acid-resistant [125I-Tyr1]SRIF” value (from here on “cellular accumulation”) was “none of these inhibitors increased”. Further, the “[125I-Tyr1]SRIF bound, Total” value in data set [2] (chase 30 min at 37C) was 3,491 cpm. Moreover, the “[125I-Tyr1]SRIF bound, Total” value in data set [2] (chase 60 min at 37C) was 1,725 cpm. For the same compound, in data set [2] (chloroquine 0.1 mM, 37C, all times), the “decrease in [125I-Tyr1]SRIF binding” value came to 50%. Further, the “amount of cell-associated 125I-EGF” value in data set [3] is given as “increased”. For the same compound, in the data set on GH4C1 cells [4], the “rate of dissociation or degradation of prebound [125I-Tyr1]SRIF” value is “did not alter” and the “half-time of release of radioactivity after [125I-Tyr1]SRIF binding” value was determined as 41 min.
Regarding somatostatin [SRIF], the “time to maximal inhibitory effect on hormone secretion” value in the data set on GH4C1 cells [5] is not above 5 min. In the data set on GH4C1 cell membranes, the 125I bound is 9,695 cpm and the 125I dissociated is reported as 10,791 cpm. Also, in the data set on GH4C1 cells [4] (Table V Exp. 1, SRIF 0.1 mM in dissociation medium), the “% Intact [125I-Tyr1]SRIF” value stood at 65%. The “effect on receptor-mediated degradation of [125I-Tyr1]SRIF” value (“effect on receptor-mediated degradation” below) in the data set on GH4C1 cells [4] was “only a slight effect”.
In the case of `NC(=O)CI` [iodoacetamide], in the data set on GH4C1 cells [4], the “effect on receptor-mediated degradation” value is given as “substantially inhibited”.
a2-macroglobulin: in the data set on GH4C1 cells [4] (setting [8]), the 125I released is recorded as 2,217 cpm and the “% Intact [125I-Tyr1]SRIF” value is 64%. For the same compound, the “effect on receptor-mediated degradation” value in the data set on GH4C1 cells [4] is given as “same small effect”.
Regarding `CC(=O)N[C@@H](CC(C)C)C(=O)N[C@@H](CC(C)C)C(=O)N[C@H](C=O)CCCNC(=N)N` [leupeptin], in the data set with GH4C1 cells [1], the “subsequent rate of release of 125I-tyrosine from 125I-EGF” value is “decreased”. For the same compound, the “cellular accumulation” value in data set [2] (37C, chloroquine 0.1 mM) is on record as “none of these inhibitors increased”. Besides, in data set [2] (chase 30 min at 37C), the “[125I-Tyr1]SRIF bound, Total” value is 5,537 cpm. In data set [2] (chase 60 min at 37C), the “[125I-Tyr1]SRIF bound, Total” value is 3,385 cpm. In addition, the “amount of cell-associated 125I-EGF” value in data set [3] was “increased”. In addition, in the data set with GH4C1 cells [4], the “rate of dissociation or degradation of prebound [125I-Tyr1]SRIF” value was “did not alter” and the “half-time of release of radioactivity after [125I-Tyr1]SRIF binding” value was 48 min.
For the compound `COc1ccc(C[C@H](N)C(=O)N[C@H]2[C@@H](O)[C@H](n3cnc4c(N(C)C)ncnc43)O[C@@H]2CO)cc1` [puromycin], the “effect on receptor-mediated degradation” value in the data set with GH4C1 cells [4] is on record as “same small effect”.
Take `CC(C)C[C@H](NP(=O)(O)O[C@@H]1O[C@@H](C)[C@H](O)[C@@H](O)[C@H]1O)C(=O)N[C@@H](Cc1c[nH]c2ccccc12)C(=O)O` [Phosphoramidon, phosphoramidon]: the “effect on receptor-mediated degradation” value in the data set on GH4C1 cells [4] is reported as “substantially inhibited”.
On to “125I-EGF: radioiodinated epidermal growth factor, chloramine T iodination”, for which, in the data set with GH4C1 cells [1], the “half-time for the release of 125I-tyrosine derived from receptor-bound 125I-EGF” value was 45 min. Moreover, the “half-time of transfer from acid-sensitive to acid-resistant compartment” value in the data set on GH4C1 cells [6] is 2 min.
For the compound `Cc1ccc(S(=O)(=O)NC(CCCCN)C(=O)CCl)cc1` [TLCK, Na-p-tosyl-L-lysine chloromethyl ketone], the “effect on receptor-mediated degradation” value with GH4C1 cells [4] is given as “same small effect”.
With `Cc1ccc(S(=O)(=O)N[C@@H](Cc2ccccc2)C(=O)CCl)cc1` [TPCK, L-l-tosylamide 2-phenylethyl chloromethyl ketone], the “effect on receptor-mediated degradation” value in the data set on GH4C1 cells [4] is listed as “substantially inhibited”.
Still for that read-out and setting: the entry for `O=S(=O)(F)Cc1ccccc1` [PMSF, phenylmethylsulfonyl fluoride] is “same small effect”.
As to “epidermal growth factor (NSYPGCPSSYDGYCLNGGVCMHIESLDSYTCNCVIGYSGDRCQTRDLRWWELR; not fully specified; Epidermal growth factor; UniProt P01132 977-1029, looked up) [EGF]”, the “time for transformation from acid-extractable to acid-resistant state” value in the data set with GH4C1 cells [7] was not above 10 min.
`O=C(O)c1cc[c]([Hg][Cl])cc1` [chloromercuribenzoate]: the “effect on receptor-mediated degradation” value in the data set on GH4C1 cells [4] is “substantially inhibited”.
On to `Cl.N` [ammonium chloride], for which the “[125I-Tyr1]SRIF binding” value in data set [2] (20 mM ammonium chloride, 4 h at 37C, same experiment) was “unaffected”. Further, the “cellular accumulation” value in data set [2] (37C, chloroquine 0.1 mM) is on record as “none of these inhibitors increased”. Moreover, in data set [3] (20 mM ammonium chloride, 4 h at 37C), the “amount of 125I-EGF bound to cells” value is listed as 210 % of untreated controls.
Take bacitracin: the “effect on receptor-mediated degradation” value with GH4C1 cells [4] was “same small effect”.
